Data: patent publication US7220780B2, “Naaladase inhibitors for treating retinal disorders and glaucoma” (Guilford Pharmaceuticals Inc., priority 2000, dated 2007)

How the values were obtained:
NAALADase = NAALADase (Rattus norvegicus, UniProt P70627); assay: In vitro inhibition of NAALADase activity; format: biochemical; details: for Ki: read-out: K1
male Brown Norway rats [1] = assay: Experimental rat glaucoma (IOP elevation by hypertonic saline), optic nerve fiber counting; format: in vivo; details: 8 week group, 10 mg/kg daily i.p.
Protocol: (§1) All experiments complied with the Association for Research in Vision and Ophthalmology Statement for the Use of Animals in Ophthalmic and Vision Research. 82 male Brown Norway rats (Rattus norvegicus), each weighing approximately 250 gm, were treated using procedures approved by the Animal Care Committee of the Johns Hopkins University School of Medicine. The rats were housed with a 12 hour light/12 hour dark cycle and fed ad libitum .
EXPERIMENTAL GLAUCOMA: Unilateral elevation of IOP was produced in 56 rats by microinjection of hypertonic saline into episcleral veins, following procedures described in Morrison, J. et al., IOVS (March 1998) 39:526-531. Beginning on the day of IOP elevation, the rats were treated daily with intraperitoneal injections of either a vehicle (23 rats with 50 mM HEPES-buffered saline) or a NAALADase inhibitor (11 rats with 10 mg/kg of 2-[[(2,3,4,5,6-pentafluorobenzyl)hydroxyphosphinyl]-methyl]pentanedioic acid (“Compound A”) and 22 rats with 10 mg/kg of 2-(3-sulfanylpropyl)pentanedioic acid (“Compound B”)). 11 saline treated rats, 11 Compound A treated rats and 11 Compound B treated rats were sacrificed at 8 weeks, and the remaining rats at 12 weeks, after initial IOP elevation.
(§2) OPTIC NERVE COUNTING: The rats were sacrificed by exsanguination under deep pentobarbital anesthesia. They were perfused through the heart with 2% paraformaldehyde/2% glutaraldehyde in 0.1 M phosphate buffer, pH 7.2, and the eyes with attached optic nerves were removed. A cross-section of the optic nerve from both experimental (glaucoma or transection) and control eyes was removed 1.5 mm posterior to the globe, 1 mm in thickness, and post-fixed in 2% osmium tetroxide in buffer. These were processed into epoxy resin, sectioned at 1 micron and stained with toluidine blue.
(§3) The area of the optic nerve cross-section was measured by outlining its outer border at 10×magnification on an image analysis system (Universal Imaging Corp., Westchester, Pa.) with Synsys digital camera and Metamorph software. Three area measurements were taken and the mean value was determined. To measure the density and fiber diameter distributions, images were captured with a 100× phase contrast objective from 10 different areas of each nerve. These were edited to eliminate non-neural objects and the size of each axon internal to the myelin sheath (its minimum diameter) and the density of axons/square mm were calculated for each image and nerve. The mean density was multiplied by total nerve area to yield fiber number for each nerve. The total fiber number in glaucoma or transection nerves was compared to the normal, fellow eye of each rat to yield a percent loss value. The number of axons counted among the 10 images was an approximately 20% sample of the 80-90,000 axons in normal rat nerves. The person measuring axon number was masked to the protocol conducted on the nerves.

male Brown Norway rats [2] = assay: Optic nerve transection in rats, optic nerve fiber counting; format: in vivo, Rattus norvegicus; details: for FIBER NUMBER ± SEM / PERCENT DIFFERENCE ± SEM: 10 mg/kg daily i.p.; for PERCENT DIFFERENCE ± SEM: transected vs normal eye
Protocol: as §1
OPTIC NERVE TRANSECTION: The optic nerve was transected unilaterally in 26 rats under intraperitoneal pentobarbital anesthesia. The conjunctiva was opened with scissors and the optic nerve exposed by traction on extraocular muscles. The transection was performed with microscissors 5 mm posterior to the globe, with specific attention to avoidance of injury to major ocular blood vessels. Immediately after transection, the retina was examined ophthalmoscopically to assure that the retinal arterial blood supply was not disrupted. The conjunctiva was closed with absorbable suture and the eye dressed with antibiotic ointment. Beginning on the day of transection, the rats were treated daily with intraperitoneal injections of either a vehicle (9 rats with 50 mM HEPES-buffered saline) or a NAALADase inhibitor (8 rats with 10 mg/kg of Compound A and 9 rats with 10 mg/kg of Compound B). 5 saline treated rats, 3 Compound A treated rats and 4 Compound B treated rats were sacrificed at 2 weeks, and the remaining rats at 4 weeks, after transection.
as §2, §3

[3] = 2 weeks survival after transection
[4] = 4 weeks survival after transection

Sequence of NAALADase (P70627 whole entry): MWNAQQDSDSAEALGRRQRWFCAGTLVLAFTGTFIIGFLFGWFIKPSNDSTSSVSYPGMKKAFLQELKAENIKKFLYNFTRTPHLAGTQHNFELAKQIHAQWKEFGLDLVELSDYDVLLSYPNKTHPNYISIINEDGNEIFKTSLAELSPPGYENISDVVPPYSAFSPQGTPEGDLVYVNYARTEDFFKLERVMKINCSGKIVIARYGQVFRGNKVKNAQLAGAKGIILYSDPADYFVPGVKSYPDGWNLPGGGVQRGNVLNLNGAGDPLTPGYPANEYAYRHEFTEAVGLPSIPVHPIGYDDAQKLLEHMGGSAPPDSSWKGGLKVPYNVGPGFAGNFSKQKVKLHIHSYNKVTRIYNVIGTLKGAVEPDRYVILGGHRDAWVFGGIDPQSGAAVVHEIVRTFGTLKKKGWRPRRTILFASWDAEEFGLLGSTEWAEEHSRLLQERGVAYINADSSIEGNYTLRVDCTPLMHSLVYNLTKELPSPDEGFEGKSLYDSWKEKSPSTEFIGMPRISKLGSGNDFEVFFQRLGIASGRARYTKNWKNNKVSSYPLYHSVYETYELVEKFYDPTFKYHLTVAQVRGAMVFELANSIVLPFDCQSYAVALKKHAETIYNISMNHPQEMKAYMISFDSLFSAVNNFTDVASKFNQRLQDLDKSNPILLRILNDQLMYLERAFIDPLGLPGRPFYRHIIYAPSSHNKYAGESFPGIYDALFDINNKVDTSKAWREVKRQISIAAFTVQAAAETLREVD

Compound | Ki (NAALADase) | further results
3-(2-Carboxy-4-hydroxycarbamoyl-butyl)-benzoic acid |  | IC50 (NAALADase): 0.0478 µM
O=C(O)c1ccc(C(=O)O)c(S(=O)(=O)c2cc(C(=O)O)ccc2C(=O)O)c1 [2-[(2,5-dicarboxyphenyl)sulfonyl]-1,4-benzenedicarboxylic acid] | 1.87 µM | 
O=C(O)c1ccc(C(=O)O)c(Sc2ccccc2C(=O)O)c1 [2-[(2-carboxyphenyl)thio]-1,4-benzenedicarboxylic acid] | 0.572 µM | 
O=C(O)c1ccc(S(=O)(=O)c2cc(C(=O)O)ccc2C(=O)O)cc1 [2-[(4-carboxyphenyl)sulfonyl]-1,4-benzenedicarboxylic acid] | 2.37 µM | 
O=C(O)Cc1cc(C(=O)O)ccc1C(=O)O [2-carboxymethyl-1,4-benzenedicarboxylic acid] | 9 µM | 
O=C(O)c1ccc(CCS)c(C(=O)O)c1 [4-(2-mercaptoethyl)-1,3-benzenedicarboxylic acid] | 0.116 µM | 
O=C(O)c1ccc(OCCCSSCCCOc2ccc(C(=O)O)cc2C(=O)O)c(C(=O)O)c1 [4-[3-[[3-(2,4-dicarboxyphenoxy)-propyl]-dithio]propoxy]-1,3-benzenedicarboxylic acid] | 3.75 µM | 
O=C(O)c1ccc(C(=O)c2ccc(Oc3ccc(C(=O)O)c(C(=O)O)c3)cc2)c(C(=O)O)c1 [4-[4-(2,4-dicarboxybenzoyl)phenoxy]-1,2-benzenedicarboxylic acid] | 1.17 µM | 
O=C(O)c1ccc(Sc2ccccc2C(=O)O)c(C(=O)O)c1 [4-[(2-carboxyphenyl)thio]-1,3-benzenedicarboxylic acid] | 3.98 µM | 
O=C(O)CNc1cc(C(=O)O)cc(C(=O)O)c1 [5-[(carboxymethyl)amino]-1,3-benzenedicarboxylic acid] | 100 µM | 
O=C(O)c1cc(CNCc2ccco2)cc(C(=O)O)c1 [5-[[(2-furanylmethyl)amino]methyl]-1,3-benzenedicarboxylic acid] | 50 µM | 
O=C(O)CCC(CP(=O)(O)Cc1c(F)c(F)c(F)c(F)c1F)C(=O)O (stereo not drawn) [Compound A, 2-[[(2,3,4,5,6-pentafluorobenzyl)hydroxyphosphinyl]-methyl]pentanedioic acid] |  | FIBER NUMBER ± SEM (male Brown Norway rats [1]): 79156 ± 2436; PERCENT DIFFERENCE ± SEM (male Brown Norway rats [1]; fiber number glaucoma vs normal eye, positive = fewer fibers in glaucoma eye): −1.82 ± 2.92%; IOP INTEGRAL DIFFERENCE ± SEM (male Brown Norway rats [1]; glaucoma eye vs normal eye): 85 ± 37.5 mm Hg—days; remaining axons relative to the saline-treated rats (male Brown Norway rats [2]; 2 weeks after transection): 3 times; FIBER NUMBER ± SEM (male Brown Norway rats [2]; [3]): 26,426 ± 13,293; PERCENT DIFFERENCE ± SEM (male Brown Norway rats [2]; [3]): 65.3 ± 17.8%; FIBER NUMBER ± SEM (male Brown Norway rats [2]; [4]): 13,599 ± 3,519; PERCENT DIFFERENCE ± SEM (male Brown Norway rats [2]; [4]): 82.4 ± 4.0%

Second part, led by results:

Ki (NAALADase) | Compound | further results
14.5 µM | O=C(O)c1cc(OCCS)cc(C(=O)O)c1 [5-(2-mercaptoethoxy)-1,3-benzenedicarboxylic acid] | 
5.1 µM | O=C(O)c1cc(CCS)cc(C(=O)O)c1 [5-(2-mercaptoethyl)-1,3-benzenedicarboxylic acid] | 
3.3 µM | O=C(O)c1cc(OCCCS)cc(C(=O)O)c1 [5-(3-mercaptopropoxy)-1,3-benzenedicarboxylic acid] | 
12 µM | O=C(Cc1cc(C(=O)O)cc(C(=O)O)c1)NO [5-[2-(hydroxyamino)-2-oxoethyl]-1,3-benzenedicarboxylic acid] | 
1 µM | O=C(O)c1cc(C(=O)O)cc(C(=O)NO)c1 [5-[(hydroxyamino)-carbonyl]-1,3-benzenedicarboxylic acid] | 
6.5 µM | O=C(O)c1cc(CS)cc(C(=O)O)c1 [5-mercaptomethyl-1,3-benzenedicarboxylic acid] | 
14 µM | O=C(O)c1cc(C(=O)O)cc(P(=O)(O)O)c1 [5-phosphono-1,3-benzenedicarboxylic acid] | 
3.1 µM | O=C(O)c1cc(CP(=O)(O)O)cc(C(=O)O)c1 [5-phosphonomethyl-1,3-benzenedicarboxylic acid] | 
